Data on 40 compounds can be found in patent US10858335B2 (Rigel Pharmaceuticals, Inc., priority 2014, dated 2020).

In the first assay the test system is GDF8 signaling (p-SMAD-3 (Ser423/425)). Briefly: AlphaScreen SureFire SMAD3 (p-Ser423/425) assay, GDF8-stimulated cells (GDF pSMAD). The settings on record: MPC11; GDF8-stimulated; p-SMAD3 AlphaScreen; read-out: GDF pSMAD (MPC11) (inhibition of GDF8 signaling). The assay is classed as cell-based. Background: Alpha assays give light when donor and acceptor beads are brought close together.
Turning to `Cc1cc(-c2ncccc2-c2ccn3ncc(C(=O)NC4CC5CCC(C4)N5C)c3c2)ccc1F` (stereo not drawn) [compound 715, exo-5-(2-(4-Fluoro-3-methylphenyl)pyridin-3-yl)-N-(8-methyl-8-azabicyclo[3.2.1]octan-3-yl)pyrazolo[1,5-a]pyridine-3-carboxamide], the IC50 was determined as 2.03 µM.
Still for that read-out and setting: then `Cc1cc(-c2ncccc2-c2ccc3ncn(CCCN4CCN(C)CC4)c3c2)ccc1F` [Compound 40, 6-(2-(4-Fluoro-3-methylphenyl)pyridin-3-yl)-1-(3-(4-methylpiperazin-1-yl)propyl)-1H-benzo[d]imidazole], with 18.5 µM.

Still in this assay, the particulars now being: Mus musculus, MPC-11, GDF8-stimulated pSMAD3, MPC11; tested as the salt form given; read-out: GDF pSMAD (MPC11) (μM), inhibition of GDF8 signaling.
For the compound `Nc1ncnc2ccc(-c3cccnc3-c3cc(Cl)ccc3F)nc12` [compound 1039], the IC50 amounted to 0.0438 µM.

Staying with this assay, now noted: Mus musculus, MPC-11, MPC11; GDF8-stimulated; p-SMAD3 AlphaScreen; read-out: GDF pSMAD (MPC11) (inhibition of GDF8 signaling).
With `Nc1ncnc2ccc(-c3cccnc3-c3cccc(OCC(F)(F)F)c3)cc12` [compound 484, 6-(2-(3-(2,2,2-Trifluoroethoxy)phenyl)pyridin-3-yl)quinazolin-4-amine], the IC50 came to 0.161 µM.
Still for that read-out and setting: then `COc1ccc(CNc2cnc(-c3ccc(F)c(C)c3)c(-c3ccc4ncsc4c3)c2)cn1` [compound 324, 5-(Benzo[d]thiazol-6-yl)-6-(4-fluoro-3-methylphenyl)-N-((6-methoxypyridin-3-yl)methyl)pyridin-3-amine], with 0.461 µM; and `Cc1cc(-c2ncccc2-c2ccc3ncc(C(=O)Nc4cccc(S(N)(=O)=O)c4)n3c2)ccc1F` [compound 616, 6-(2-(4-Fluoro-3-methylphenyl)pyridin-3-yl)-N-(3-sulfamoylphenyl)imidazo[1,2-a]pyridine-3-carboxamide], with 2.19 µM; and `FC(F)(F)c1cccc(-c2ncccc2-c2ccc3nccn3c2)c1` [Compound 199, 6-(2-(3-(Trifluoromethyl)phenyl)pyridin-3-yl)H-imidazo[1,2-a]pyridine], with 1.16 µM.
Still for that read-out and setting: the value for `Cc1cc(-c2ncc(NCc3c[nH]c4ncccc34)cc2-c2ccc3ncsc3c2)ccc1F` [compound 330, N-((1H-Pyrrolo[2,3-b]pyridin-3-yl)methyl)-5-(benzo[d]thiazol-6-yl)-6-(4-fluoro-3-methylphenyl)pyridin-3-amine] was 0.457 µM; that for `Cc1cc(-c2ncccc2-c2ccc3ncc(C(=O)NCCN)n3c2)ccc1F` [compound 681, N-(2-Aminoethyl)-6-(2-(4-fluoro-3-methylphenyl)pyridin-3-yl)imidazo[1,2-a]pyridine-3-carboxamide] was 0.288 µM; that for `Clc1cccc(-c2ncccc2-c2ccc3nc[nH]c3c2)c1` [compound 783] was 0.231 µM.
Still for that read-out and setting: then `Clc1cccc(-c2ncccc2-c2ccc3ncnn3n2)c1` [compound 954, 6-(2-(3-Chlorophenyl)pyridin-3-yl)-[1,2,4]triazolo[1,5-b]pyridazine], with 0.438 µM; and `Fc1ccc(Cl)cc1-c1ncccc1-c1ccc2ncsc2c1` [compound 717, 6-(2-(5-Chloro-2-fluorophenyl)pyridin-3-yl)benzo[d]thiazole], with 0.217 µM.
Regarding `Cc1cccc(-c2ncccc2-c2ccc3nccn3c2)c1` [Compound 166, 6-(2-m-Tolylpyridin-3-yl)imidazo[1,2-a]pyridine], the IC50 is 0.109 µM.
Still for that read-out and setting: the value for `Cc1cc(-c2ncccc2-c2ccc3ncnc(Oc4cccc(N5CCOCC5)c4)c3c2)ccc1F` [compound 444, 4-(3-((6-(2-(4-Fluoro-3-methylphenyl)pyridin-3-yl)quinazolin-4-yl)oxy)phenyl)morpholine] was 1.08 µM.
The same measure, in the same setting: the value for `Oc1cccc(-c2ncccc2-c2cnc3[nH]ncc3c2)c1` [Compound 156, 3-(3-(1H-Pyrazolo[3,4-b]pyridin-5-yl)pyridin-2-yl)phenol] was 1.79 µM.
Still for that read-out and setting: the value for `Nc1ncnc2ccc(-c3cccnc3-c3cc(F)cc(Cl)c3)cc12` [compound 460, 6-(2-(3-Chloro-5-fluorophenyl)pyridin-3-yl)quinazolin-4-amine] was 0.129 µM.
On to `Fc1cc(F)c(-c2ncccc2-c2ccc3ncsc3c2)cc1F` [compound 693, 6-(2-(2,4,5-Trifluorophenyl)pyridin-3-yl)benzo[d]thiazole], for which the IC50 was 0.507 µM.
The same measure, in the same setting: then `Cc1cc(-c2ncccc2-c2ccc3c(cnn3C(=O)NCCN)c2)ccc1F` [compound 639, N-(2-Aminoethyl)-5-(2-(4-fluoro-3-methylphenyl)pyridin-3-yl)-1H-indazole-1-carboxamide], with 10.6 µM; and `COc1cnc(-c2ccc(F)c(Cl)c2)c(-c2ccn3ncnc3c2)c1` [compound 856, 7-(2-(3-Chloro-4-fluorophenyl)-5-methoxypyridin-3-yl)-[1,2,4]triazolo[1,5-a]pyridine], with 5.58 µM; and `COc1ccnc2ccc(-c3cccnc3-c3cc(Cl)c(F)cc3F)cc12` [compound 842, 6-(2-(5-Chloro-2,4-difluorophenyl)pyridin-3-yl)-4-methoxyquinoline], with 17.4 µM.
Same read-out and setting: then `Cc1cc(-c2ncccc2-c2ccc3ncc(C(=O)NCCN4CCOC4=O)n3c2)ccc1F` [compound 817, 6-(2-(4-Fluoro-3-methylphenyl)pyridin-3-yl)-N-(2-(2-oxooxazolidin-3-yl)ethyl)imidazo[1,2-a]pyridine-3-carboxamide], with 0.584 µM.
Take `Cc1cc(-c2ncccc2-c2ccc3ncc(C(=O)N4CCN(C)CC4)n3c2)ccc1F` [compound 581, (6-(2-(4-Fluoro-3-methylphenyl)pyridin-3-yl)imidazo[1,2-a]pyridin-3-yl)(4-methylpiperazin-1-yl)methanone]: the IC50 worked out at 6.31 µM.
On the same count and under the same terms, then `Cc1cc(-c2ncccc2-c2ccc3ncc(N4CCCC4)n3c2)ccc1F` [compound 561, 6-(2-(4-Fluoro-3-methylphenyl)pyridin-3-yl)-3-(pyrrolidin-1-yl)imidazo[1,2-a]pyridine], with 11 µM; and `CCN(CC)c1ncnc2ccc(-c3cccnc3-c3ccc(F)c(C)c3)cc12` [compound 397, N,N-Diethyl-6-(2-(4-fluoro-3-methylphenyl)pyridin-3-yl)quinazolin-4-amine], with 9.41 µM; and `Clc1cccc(-c2ncccc2-c2ccc3ncsc3c2)c1` [compound 668, 6-(2-(3-Chlorophenyl)pyridin-3-yl)benzo[d]thiazole], with 0.313 µM.
On the same count and under the same terms, then `Cc1cccc(-c2ncccc2-c2ccc3ncc(C#N)n3c2)c1` [compound 558, 6-(2-(m-Tolyl)pyridin-3-yl)imidazo[1,2-a]pyridine-3-carbonitrile], with 0.188 µM; and `COc1cccc(-c2ncccc2-c2ccc3nccn3c2)c1` [Compound 52, 6-(2-(3-Methoxyphenyl)pyridin-3-yl)imidazo[1,2-a]pyridine], with 1.4 µM.
The same measure, in the same setting: the value for `CS(=O)(=O)Nc1cnc(-c2cccc(C3CC3)c2)c(-c2ccc3[nH]ncc3c2)c1` [Compound 31, N-(6-(3-Cyclopropylphenyl)-5-(1H-indazol-5-yl)pyridin-3-yl) methanesulfonamide] was 1.9 µM.
On to `Cc1cc(CNc2cnc(-c3ccc(F)c(C)c3)c(-c3ccc4ncsc4c3)c2)ccc1O` [compound 372, 4-(((5-(Benzo[d]thiazol-6-yl)-6-(4-fluoro-3-methylphenyl)pyridin-3-yl)amino)methyl)-2-methylphenol], for which the IC50 worked out at 0.339 µM.
On to `COCc1cnc(-c2ccc(F)c(C)c2)c(-c2ccc3nccnc3c2)c1` [compound 228, 6-(2-(4-Fluoro-3-methylphenyl)-5-(methoxymethyl)pyridin-3-yl)quinoxaline], for which the IC50 was 9.76 µM.
Same read-out and setting: the value for `CN(C)c1cnc2ccc(-c3cccnc3-c3cccc(C4CC4)c3)cn12` [compound 553, 6-(2-(3-Cyclopropylphenyl)pyridin-3-yl)-N,N-dimethylimidazo[1,2-a]pyridin-3-amine] was 3.24 µM; that for `Cc1cc(-c2ncc(NCc3ccc(C#N)cc3)cc2-c2ccc3nccnc3c2)ccc1F` [compound 308, 4-(((6-(4-Fluoro-3-methylphenyl)-5-(quinoxalin-6-yl)pyridin-3-yl)amino)methyl)benzonitrile] was 4.81 µM; that for `Cc1cc(-c2ncccc2-c2ccn3nccc3n2)ccc1F` [compound 910, 5-(2-(4-Fluoro-3-methylphenyl)pyridin-3-yl)pyrazolo[1,5-a]pyrimidine] was 0.0972 µM.
On the same count and under the same terms, then `Nc1nc2ccc(-c3cccnc3-c3cccc(Cl)c3)nc2s1` [compound 301, 5-(2-(3-Chlorophenyl)pyridin-3-yl)thiazolo[5,4-b]pyridin-2-amine], with 0.345 µM; and `Cc1cc(-c2ncc(NC(=O)c3cccnc3)cc2-c2ccc3ncsc3c2)ccc1F` [compound 315, N-(5-(Benzo[d]thiazol-6-yl)-6-(4-fluoro-3-methylphenyl)pyridin-3-yl)nicotinamide], with 0.749 µM; and `Fc1cc(F)c(-c2ncccc2-c2ccc3nccnc3n2)cc1Cl` [compound 743, 6-(2-(5-Chloro-2,4-difluorophenyl)pyridin-3-yl)pyrido[2,3-b]pyrazine], with 0.638 µM.
Regarding `[2H]C([2H])([2H])c1cccc(-c2ncccc2-c2ccc3ncc(C#N)n3c2)c1` [compound 601, 6-(2-(3-(Methyl-d3)phenyl)pyridin-3-yl)imidazo[1,2-a]pyridine-3-carbonitrile], the IC50 came to 0.141 µM.
On the same count and under the same terms, then `CC(=O)Nc1cnc(-c2ccc(F)c(C)c2)c(-c2ccc3[nH]ncc3c2)c1` [Compound 24, N-(6-(4-Fluoro-3-methylphenyl)-5-(1H-indazol-5-yl)pyridin-3-yl)acetamide], with 0.671 µM; and `Cn1cnc2ccc(-c3cccnc3-c3ccc(F)c(Cl)c3)cc2c1=O` [compound 390, 6-(2-(3-Chloro-4-fluorophenyl)pyridin-3-yl)-3-methylquinazolin-4(3H)-one], with 0.516 µM.
Turning to `N#Cc1cccc(-c2ncccc2-c2cnc3cn[nH]c3c2)c1` [Compound 141, 3-(3-(1H-Pyrazolo[4,3-b]pyridin-6-yl)pyridin-2-yl)benzonitrile], the IC50 came out at 18.6 µM.
